Laboratory results: PMC10281575, “PfCRT mutations conferring piperaquine resistance in falciparum malaria shape the kinetics of quinoline drug binding and transport” (PLOS Pathogens, 2023)
Several values for one entry are separate records, joined by “and”; a condition that tells them apart may be missing. Equal values may be shown once. Read-outs that look alike come from different tables or passages of the source.

Molecular target: T1, PfCRT^Dd2 (Plasmodium falciparum, UniProt Q8IBZ9, A220S/I356T/K76T/M74I/N326S/N75E/Q271E/R371I)
T1 sequence (Q8IBZ9 1-424 M74I/N75E/K76T/A220S/Q271E/N326S/I356T/R371I): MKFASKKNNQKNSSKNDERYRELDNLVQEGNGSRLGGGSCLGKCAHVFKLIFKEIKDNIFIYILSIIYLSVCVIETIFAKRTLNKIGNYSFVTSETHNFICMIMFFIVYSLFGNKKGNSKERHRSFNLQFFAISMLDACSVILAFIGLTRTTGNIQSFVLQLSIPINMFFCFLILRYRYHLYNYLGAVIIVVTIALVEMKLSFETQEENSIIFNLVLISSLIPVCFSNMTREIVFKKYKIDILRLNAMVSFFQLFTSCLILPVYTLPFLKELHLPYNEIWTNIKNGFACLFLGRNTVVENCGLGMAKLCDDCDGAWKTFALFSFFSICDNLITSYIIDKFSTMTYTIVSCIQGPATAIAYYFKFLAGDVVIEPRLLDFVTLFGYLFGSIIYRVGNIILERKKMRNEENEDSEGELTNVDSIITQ
Assay: Competition kinetics of drug transport (radiolabeled substrate plus cold inhibitor), PfCRT^Dd2-expressing oocytes
Format: cell-based
Set-up: expressed in transfected cells; host or cells: Xenopus laevis oocytes injected with in vitro transcribed RNA (pSP64T)
Settings: for PfCRTDd2-mediated PPQ transport 500 µM PPQ: single replicates; for Vmax, maximal velocity of drug transport: global fit; for β, partiality factor: factor on transport of the labeled drug by the other drug
Description: The experimental procedure and the data analysis were as described above.
The difference between the two models lies in the value of α, a parameter describing how much the affinity for the substrate changes when the inhibitor is already bound, and vice versa. […] The resulting Vmax,app values and the Vmax,app/KM,app ratios were plotted as a function of the inhibitor concentration (Fig 5A).
Drug transport assays were performed as previously described. Briefly, measurements of radiolabeled drug uptake were made over 1 h, unless otherwise specified. […] Where specified, one or more unlabeled drugs were also present at the indicated concentrations. […] The uptake assays were terminated by removing the oocytes from the reaction medium and washing them three times with 2 mL of ice-cold ND96 buffer. Each oocyte was transferred to a separate scintillation vial and lysed by the addition of 200 μL of a 5% SDS solution. The radioactivity in the sample was measured using a liquid scintillation analyser Tri-Carb 4910 TR (PerkinElmer). Water-injected oocytes were analyzed in parallel as a negative control. The buffer from each condition was measured in duplicate in parallel to each experiment to transform counts per minute into pmol of drug. Drug uptake attributable to PfCRT was determined by subtracting the background uptake from water-injected oocytes from that of PfCRT-expressing oocytes. In all cases, at least three independent experiments were performed on oocytes from different frogs, and for each condition in an experiment, measurements were made from 10 oocytes per treatment.
The following equations were adopted from Segel (1993), and the reader is referred to that text for the assumptions made in the author’s approach in the derivation of each equation [31]. The concentration of substrate is denoted as [S1] and the concentration of the inhibiting substrate is denoted as [S2]. KS1 and KS2 are the dissociation constants for the respective substrate-protein complexes.
Analyses of the kinetic data were performed using SigmaPlot version 13.0 and Python. The drug competition models were globally fit to the kinetic data using the least-squares method and ranked according to their corrected Akaike information criterion difference (ΔAICC) and their Akaike weight, using Python. The two top-ranked models were compared using an F-test.
This factor reflects how much the affinity of the transporter for one drug changes when the other drug is already bound in the protein cavity. In the former model, α > 0 and α ≠ 1. In the latter model, it could be thought of as if α = 1. Because of this, discriminating between the two models also means determining the value of α. In Mixed-type (Partial) inhibition, the apparent maximal velocity (Vmax,app) is given by Eq 22, Vmax,app=Vmax(1+β[S2]/αKS2)/(1+[S2]/αKS2) (Eq 22)
Vmax,app is the maximal rate of substrate transport at a certain inhibitor concentration. The half-maximal inhibitory concentration is given by the term in the denominator different from [S2], which in this case is αKS2. This means that by plotting Vmax,app as a function of [S2], the value of αKS2 can be derived after fitting the curve to Eq 23.
The half-maximal inhibitory concentration derived from this hyperbolic equation is equal to KS2. By plotting Vmax,app/KM,app as a function of [S2], one can derive KS2 after fitting the curve to Eq 25. The value of α can then be calculated dividing αKS2 by KS2.

## Clc1ccc2c(N3CCN(CCCN4CCN(c5ccnc6cc(Cl)ccc56)CC4)CC3)ccnc2c1 [PPQ, piperaquine]
50 µM CQ
  PfCRTDd2-mediated PPQ transport 500 µM PPQ: 89.07 pmol oocyte-1 h-1 and 87.88 pmol oocyte-1 h-1 and 107.53 pmol oocyte-1 h-1
125 µM CQ
  PfCRTDd2-mediated PPQ transport 500 µM PPQ: 90.95 pmol oocyte-1 h-1 and 93.39 pmol oocyte-1 h-1 and 84.66 pmol oocyte-1 h-1
200 µM CQ
  PfCRTDd2-mediated PPQ transport 500 µM PPQ: 77.82 pmol oocyte-1 h-1 and 87.40 pmol oocyte-1 h-1 and 96.04 pmol oocyte-1 h-1
400 µM CQ
  PfCRTDd2-mediated PPQ transport 500 µM PPQ: 65.21 pmol oocyte-1 h-1 and 77.83 pmol oocyte-1 h-1 and 82.19 pmol oocyte-1 h-1
1/[PPQ] 0.002000 µM-1
  v / (Vmax - v): 0.5629
1/[PPQ] 0.002857 µM-1
  v / (Vmax - v): 0.5805
1/[PPQ] 0.005000 µM-1
  v / (Vmax - v): 0.7051
1/[PPQ] 0.008000 µM-1
  v / (Vmax - v): 0.9675
1/[PPQ] 0.020000 µM-1
  v / (Vmax - v): 1.1790
16 models, ΔAICC, Akaike weight, F-test, label = cold inhibitor of the other drug's transport
  most plausible inhibition model: partial noncompetitive inhibition
Mixed (Partial) model, drug as radiolabeled substrate
  Vmax, maximal velocity of drug transport: 130 ± 3 pmol oocyte^-1 h^-1
Mixed (Partial) model, drug as cold inhibitor, read-out: KS, dissociation constant for the PfCRT-substrate complex
  Kd: 210 ± 50 µM
Mixed (Partial) model, drug as radiolabeled substrate, read-out: KS, dissociation constant for the PfCRT-substrate complex
  Kd: 125 ± 9 µM
Mixed (Partial) model
  β, partiality factor: 0.63 ± 0.08
Mixed (Partial) model, label = radiolabeled substrate, other drug cold inhibitor
  α, KS interaction factor: 1.2 ± 0.3
Noncompetitive (Partial) model, drug as radiolabeled substrate, other drug as cold inhibitor
  Vmax, maximal velocity of drug transport: 131 pmol oocyte^-1 h^-1 and 131 ± 2 pmol oocyte^-1 h^-1
Noncompetitive (Partial) model, drug as cold inhibitor, read-out: KS, dissociation constant for the PfCRT-substrate complex
  Kd: 201 µM and 200 µM
Noncompetitive (Partial) model, drug as radiolabeled substrate, read-out: KS, dissociation constant for the PfCRT-substrate complex
  Kd: 130 ± 6 µM
Noncompetitive (Partial) model
  β, partiality factor: 0.60 and 0.60 ± 0.06
[CQ] 0 µM
  KMapp ([3H]PPQ + CQ): 122.92 µM
  Vmaxapp ([3H]PPQ + CQ): 130.71 pmol oocyte-1 h-1
  Vmaxapp/KMapp ([3H]PPQ + CQ): 1.0634 h⁻¹
[CQ] 25 µM
  KMapp ([3H]PPQ + CQ): 130.31 µM
  Vmaxapp ([3H]PPQ + CQ): 125.79 pmol oocyte-1 h-1
  Vmaxapp/KMapp ([3H]PPQ + CQ): 0.9653 h⁻¹
[CQ] 50 µM
  KMapp ([3H]PPQ + CQ): 129.68 µM
  Vmaxapp ([3H]PPQ + CQ): 119.39 pmol oocyte-1 h-1
  Vmaxapp/KMapp ([3H]PPQ + CQ): 0.9206 h⁻¹
[CQ] 125 µM
  KMapp ([3H]PPQ + CQ): 128.38 µM
  Vmaxapp ([3H]PPQ + CQ): 113.74 pmol oocyte-1 h-1
  Vmaxapp/KMapp ([3H]PPQ + CQ): 0.8860 h⁻¹
[CQ] 200 µM
  KMapp ([3H]PPQ + CQ): 133.02 µM
  Vmaxapp ([3H]PPQ + CQ): 109.91 pmol oocyte-1 h-1
  Vmaxapp/KMapp ([3H]PPQ + CQ): 0.8262 h⁻¹
[CQ] 400 µM
  KMapp ([3H]PPQ + CQ): 140.80 µM
  Vmaxapp ([3H]PPQ + CQ): 99.57 pmol oocyte-1 h-1
  Vmaxapp/KMapp ([3H]PPQ + CQ): 0.7072 h⁻¹
Secondary plot, half-maximum inhibitory concentration of Vmax,app versus inhibitor concentration, read-out: αKS, dissociation constant between the drug and the PfCRT complex with the other drug
  Kd: 205 ± 50 µM
Secondary plots, label = prebound drug
  α (αKS divided by KS): 0.9 ± 0.7
